ChEMBL document CHEMBL5528002, “Identification of selective 5-LOX and FLAP inhibitors as novel anti-inflammatory agents by ligand-based virtual screening” (Eur J Med Chem, 2024)
Calls of active or inactive are those of the source. No cut-off for these calls is given here.

Legend:
[1] = biological target: T1, Prostaglandin E synthase (Homo sapiens) (UniProt O14684); assay: Inhibition of human mPGES-1 at 10 uM relative to control
T1 sequence (whole entry): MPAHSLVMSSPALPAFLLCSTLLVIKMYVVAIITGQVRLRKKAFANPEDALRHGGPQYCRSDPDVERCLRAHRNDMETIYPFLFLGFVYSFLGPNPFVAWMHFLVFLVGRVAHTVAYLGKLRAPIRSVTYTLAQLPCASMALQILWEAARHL

Macrophage cell line [2] = assay: Effect on lipid mediator formation in human M1-like phenotype MDM cells by measuring 15-HETE formation at 10 uM pre-incubated for 15 mins followed by SACM stimulation and measured after 90 mins by UPLC-MS/MS analysis (reference value: 910 +/- 229 pg/ml); type: functional; details: time 105 min, 1.75 h
Macrophage cell line [3] = assay: Effect on lipid mediator formation in human M1-like phenotype MDM cells by measuring 12-HETE formation at 10 uM pre-incubated for 15 mins followed by SACM stimulation and measured after 90 mins by UPLC-MS/MS analysis (reference value: 181 +/- 39 pg/ml); type: functional; details: time 105 min, 1.75 h
Macrophage cell line [4] = assay: Effect on lipid mediator formation in human M2-like phenotype MDM cells by measuring 4-HDHA formation at 10 uM pre-incubated for 15 mins followed by SACM stimulation and measured after 90 mins by UPLC-MS/MS analysis (reference value: 58 +/- 8 pg/ml); type: functional; details: time 105 min, 1.75 h
Macrophage cell line [5] = assay: Effect on lipid mediator formation in human M2-like phenotype MDM cells by measuring PDX1 formation at 10 uM pre-incubated for 15 mins followed by SACM stimulation and measured after 90 mins by UPLC-MS/MS analysis relative to control; type: functional; details: time 105 min, 1.75 h
Macrophage cell line [6] = assay: Effect on lipid mediator formation in human M1-like phenotype MDM cells by measuring 15-HEPE formation at 10 uM pre-incubated for 15 mins followed by SACM stimulation and measured after 90 mins by UPLC-MS/MS analysis relative to control; type: functional; details: time 105 min, 1.75 h
Macrophage cell line [7] = assay: Effect on lipid mediator formation in human M2-like phenotype MDM cells by measuring arachidonic acid formation at 10 uM pre-incubated for 15 mins followed by SACM stimulation and measured after 90 mins by UPLC-MS/MS analysis (reference value: 92007 +/- 4892 pg/ml); type: functional; details: time 105 min, 1.75 h
Macrophage cell line [8] = assay: Effect on lipid mediator formation in human M2-like phenotype MDM cells by measuring RvD1 formation at 10 uM pre-incubated for 15 mins followed by SACM stimulation and measured after 90 mins by UPLC-MS/MS analysis relative to control; type: functional; details: time 105 min, 1.75 h
Macrophage cell line [9] = assay: Effect on lipid mediator formation in human M1-like phenotype MDM cells by measuring arachidonic acid formation at 10 uM pre-incubated for 15 mins followed by SACM stimulation and measured after 90 mins by UPLC-MS/MS analysis (reference value: 69242 +/- 58 pg/ml); type: functional; details: time 105 min, 1.75 h
Macrophage cell line [10] = assay: Effect on lipid mediator formation in human M2-like phenotype MDM cells by measuring MaR1 formation at 10 uM pre-incubated for 15 mins followed by SACM stimulation and measured after 90 mins by UPLC-MS/MS analysis relative to control; type: functional; details: time 105 min, 1.75 h
[11] = biological target: T2, Polyunsaturated fatty acid 5-lipoxygenase (Homo sapiens) (UniProt P09917); assay: Inhibition of 5-LOX in human Neutrophil assessed as enzyme remaining activity at 10 uM preincubated with compound for 15 mins followed by A23187 addition measured after 10 mins by RP-HPLC analysis relative to control; type: cell-based; details: time 25.0 min
T2 sequence (whole entry): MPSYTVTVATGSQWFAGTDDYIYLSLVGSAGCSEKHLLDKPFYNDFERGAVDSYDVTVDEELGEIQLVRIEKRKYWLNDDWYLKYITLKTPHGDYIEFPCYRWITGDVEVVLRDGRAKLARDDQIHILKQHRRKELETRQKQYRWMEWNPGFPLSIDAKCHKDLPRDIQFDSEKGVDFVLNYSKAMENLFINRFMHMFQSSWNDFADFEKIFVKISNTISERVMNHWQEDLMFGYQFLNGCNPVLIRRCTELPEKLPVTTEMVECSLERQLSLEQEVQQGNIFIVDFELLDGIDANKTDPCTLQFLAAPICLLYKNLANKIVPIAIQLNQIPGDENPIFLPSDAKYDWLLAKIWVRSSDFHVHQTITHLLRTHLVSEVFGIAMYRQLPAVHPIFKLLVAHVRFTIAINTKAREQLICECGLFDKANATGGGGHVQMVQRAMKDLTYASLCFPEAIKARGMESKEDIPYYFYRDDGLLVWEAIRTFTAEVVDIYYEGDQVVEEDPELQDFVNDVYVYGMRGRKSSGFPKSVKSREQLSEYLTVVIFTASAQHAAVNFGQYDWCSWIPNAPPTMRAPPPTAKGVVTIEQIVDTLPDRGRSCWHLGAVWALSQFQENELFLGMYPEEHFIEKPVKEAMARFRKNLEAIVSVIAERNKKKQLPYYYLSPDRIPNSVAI

Macrophage cell line [12] = assay: Effect on lipid mediator formation in human M2-like phenotype MDM cells by measuring 12-HEPE formation at 10 uM pre-incubated for 15 mins followed by SACM stimulation and measured after 90 mins by UPLC-MS/MS analysis (reference value: 361 +/- 75 pg/ml); type: functional; details: time 105 min, 1.75 h
Macrophage cell line [13] = assay: Effect on lipid mediator formation in human M1-like phenotype MDM cells by measuring PGF2alpha formation at 10 uM pre-incubated for 15 mins followed by SACM stimulation and measured after 90 mins by UPLC-MS/MS analysis relative to control; type: functional; details: time 105 min, 1.75 h
Macrophage cell line [14] = assay: Effect on lipid mediator formation in human M1-like phenotype MDM cells by measuring 15-HEPE formation at 10 uM pre-incubated for 15 mins followed by SACM stimulation and measured after 90 mins by UPLC-MS/MS analysis (reference value: 57 +/- 10 pg/ml); type: functional; details: time 105 min, 1.75 h
Macrophage cell line [15] = assay: Effect on lipid mediator formation in human M1-like phenotype MDM cells by measuring PGE2 formation at 10 uM pre-incubated for 15 mins followed by SACM stimulation and measured after 90 mins by UPLC-MS/MS analysis relative to control; type: functional; details: time 105 min, 1.75 h
[16] = biological target: T3, Polyunsaturated fatty acid 5-lipoxygenase (Homo sapiens, UniProt P09917); assay: Inhibition of 5-LOX in human Neutrophil preincubated with compound for 15 mins followed by A23187 addition measured after 10 mins by RP-HPLC analysis; type: cell-based
T3 sequence (P09917 whole entry): T2 sequence (whole entry)

Macrophage cell line [17] = assay: Effect on lipid mediator formation in human M1-like phenotype MDM cells by measuring 12-HEPE formation at 10 uM pre-incubated for 15 mins followed by SACM stimulation and measured after 90 mins by UPLC-MS/MS analysis (reference value: 40 +/- 9 pg/ml); type: functional; details: time 105 min, 1.75 h
Macrophage cell line [18] = assay: Effect on lipid mediator formation in human M1-like phenotype MDM cells by measuring t-LTB4 formation at 10 uM pre-incubated for 15 mins followed by SACM stimulation and measured after 90 mins by UPLC-MS/MS analysis (reference value: 338 +/- 102 pg/ml); type: functional; details: time 105 min, 1.75 h
Macrophage cell line [19] = assay: Effect on lipid mediator formation in human M1-like phenotype MDM cells by measuring 4-HDHA formation at 10 uM pre-incubated for 15 mins followed by SACM stimulation and measured after 90 mins by UPLC-MS/MS analysis (reference value: 58 +/- 9 pg/ml); type: functional; details: time 105 min, 1.75 h

| SMILES | inhibition [1] | Activity (Macrophage cell line [2]) [pg/mL] | Activity (Macrophage cell line [3]) [pg/mL] | Activity (Macrophage cell line [4]) [pg/mL] | Activity (Macrophage cell line [5]) [%] | Activity (Macrophage cell line [6]) [%] | Activity (Macrophage cell line [7]) [pg/mL] | Activity (Macrophage cell line [8]) [%] | Activity (Macrophage cell line [9]) [pg/mL] | Activity (Macrophage cell line [10]) [%] | Activity [11] [%] | Activity (Macrophage cell line [12]) [pg/mL] | Activity (Macrophage cell line [13]) [%] | Activity (Macrophage cell line [14]) [pg/mL] | Activity (Macrophage cell line [15]) [%] | IC50 [16] [nM] | Activity (Macrophage cell line [17]) [pg/mL] | Activity (Macrophage cell line [18]) [pg/mL] | Activity (Macrophage cell line [19]) [pg/mL] |
| --- | --- | --- | --- | --- | --- | --- | --- | --- | --- | --- | --- | --- | --- | --- | --- | --- | --- | --- | --- |
| COc1ccc(C2=C/C(=C/c3ccc(O)cc3O)C(=O)O2)cc1 | inactive | 823 | 157 | 49 | 144 | 98 | 94519 | 114 | 80565 | 189 | 19.6 | 520 | 89 | 55 | 93 | 4800 | 37 | 28 | 47 |
| Oc1ccc(CCC2CCC(c3ccc(O)cc3)CO2)cc1 (stereo not drawn) | inactive | 776 | 158 | 58 | 116 | 97 | 103809 | 82 | 74786 | 106 | 4.2 | 462 | 70 | 55 | 69 | 1100 | 36 | 29 | 44 |
